{"source": "patent US12605366B2", "about": "“Telmisartan for the treatment of hypertension in dogs” (BOEHRINGER INGELHEIM VETMEDICA GMBH, priority 2019, dated 2026)", "key": {"dogs with hypertension": {"system": "dogs with hypertension", "experiment": "Prospective, block-randomized, double-blind clinical trial: systolic blood pressure (SBP) in client-owned dogs with proteinuric CKD", "type": "in vivo, dog", "conditions": "for Average of SBP day 0: baseline; for Average of SBP day 0 / Average of SBP % change day 30 / Average of SBP change day 30 / Average of SBP % change day 60 / Average of SBP change day 60 / Average of SBP % change day 90 / Average of SBP change day 90 / Average of SBP day 30 / Average of SBP day 60 / Average of SBP day 90: dogs hypertensive at day 0, no amlodipine; for Average of SBP % change day 30 / Average of SBP change day 30 / Average of SBP % change day 60 / Average of SBP change day 60 / Average of SBP % change day 90 / Average of SBP change day 90 / Average of SBP % change day 120 / Average of SBP change day 120: change from baseline; for Average of SBP % change day 120 / Average of SBP change day 120: the other drug (telmisartan or enalapril) added after SBP measurement on day 90; for course of average SBP during the period of treatment: up to day 90", "text": "A prospective, block-randomized, double-blind clinical trial has been carried out. Fifty-four client-owned dogs with persistent pathologic renal proteinuria have been recruited over a 2-year period.\nAzotemic and non-azotemic dogs (N=54) with hypertensive and non-hypertensive CKD have been recruited prospectively from patients presented to the hospital. Dogs included as cases will have confirmed persistent pathologic renal proteinuria due to CKD; in order to be classified as such, fulfillment of the criteria described below will be required.\nAbdominal ultrasound findings consistent with CKD (bilaterally small, irregular kidneys) and absence of renal neoplasia have also been documented.\nDogs with suspected or confirmed hyper-adrenocorticism and diabetes mellitus have been included if their disease is considered well controlled with medical therapy.\nOnce included in the study and based on the presence/degree of azotemia, dogs have been grouped according to the International Renal Interest Society (IRIS) classification scheme for CKD. Those classified as IRIS stages 2-4 (serum creatinine ≥1.4 mg/dL with inappropriately dilute urine [USG<1.030]) have been considered azotemic (AZ), and those classified as IRIS stage 1 (creatinine <1.4 mg/dL) have been considered non-azotemic (non-AZ). Within each of these two groups, dogs will then be stratified according to IRIS recommendations for arterial pressure (AP) substaging. According to this scheme, dogs with persistent average indirect arterial systolic BP<150 mm Hg will be classified as AP0 (minimal risk for target organ damage). Those with persistent average indirect arterial systolic BP≥150 mm Hg have been classified as AP1-3 (at risk for target organ damage). Four groups will thus be identified: • 1. AZ (IRIS Stages 2-4), IRIS substage AP1-3 3. non-AZ (IRIS Stage 1), IRIS substage AP1-3 • 2. AZ (IRIS Stages 2-4), IRIS substage AP0 4. non-AZ (IRIS Stage 1), IRIS substage AP0\nOnce placed into one of these four groups, each patient has then been assigned, based on a randomized blocking scheme, to receive either enalapril (n=27) or telmisartan (n=27), as described below, with the aim of grouping being to ensure that equal numbers of each are included into the two treatment groups.\nOn inclusion (day 0), all owners have been required to read/sign a form consenting to their pets' participation in the study. The following baseline data have been collected for each case: full physical examination (performed by one of the study investigators), fundic examination, blood pressure measurement, serum chemistry panel, urinalysis, abdominal ultrasound, UPC and urine culture. The results of screening tests, if performed within 2 weeks of inclusion in the study, may be used as baseline information. Baseline UPC has been defined as the average of two measurements, taken 2 weeks apart, prior to enrollment.\nOn day 0, each dog has been randomized to receive telmisartan at 1 mg/kg PO q 24 h (TEL group, n=27) or enalapril at 0.5 mg/kg PO q 12 h (ENAL group, n=27) in a double-blind manner. Randomization and dispensation of telmisartan or enalapril has been carried out at the appropriate doses. Owners have been provided with appropriate contact numbers in the event of an emergency. Enalapril is readily available and telmisartan has been provided by Boehringer Ingelheim Vetmedica Inc., St. Joseph, MO in form of the an aqueous solution, which is commercially available as Semintra®.\nFor dogs that are classified as AP3 (SBP≥180 mmHg; ≥200 mmHg in sighthounds), a calcium channel blocker (CCB; amlodipine, 0.1 mg/kg PO q 24 hours) has been administered contemporaneously. Co-administration of RAAS-inhibitors and CCB is common in human patients, recommended by a panel of veterinary experts and shown to be efficacious in a laboratory model of proteinuria. All dogs have been started or maintained on a commercially available diet formulated to be low in phosphorus and protein, for at least 1 month prior to enrollment. […]"}, "dogs": {"system": "dogs", "conditions": "cited from earlier work"}}}
{"compound": "CCOC(=O)[C@H](CCc1ccccc1)N[C@@H](C)C(=O)N1CCC[C@H]1C(=O)O", "note": "[Enalapril]", "values": [{"measurement": "Average of SBP day 0", "setting": "dogs with hypertension", "result": 163.17, "unit": "mmHg"}, {"measurement": "Average of SBP day 0", "setting": "dogs with hypertension; listed as enalapril", "result": 163, "unit": "mmHg"}, {"measurement": "Average of SBP % change day 30", "setting": "dogs with hypertension; day 30", "result": "+12.90%"}, {"measurement": "Average of SBP change day 30", "setting": "dogs with hypertension; day 30", "result": "+20.00 mmHg"}, {"measurement": "Average of SBP % change day 60", "setting": "dogs with hypertension", "result": "+0.65%"}, {"measurement": "Average of SBP change day 60", "setting": "dogs with hypertension", "result": "+1.00 mmHg"}, {"measurement": "Average of SBP % change day 90", "setting": "dogs with hypertension", "result": "+1.94%"}, {"measurement": "Average of SBP change day 90", "setting": "dogs with hypertension", "result": "+3.00 mmHg"}, {"measurement": "Average of SBP % change day 120", "setting": "dogs with hypertension; no amlodipine", "result": "−20.65^1%"}, {"measurement": "Average of SBP change day 120", "setting": "dogs with hypertension; no amlodipine", "result": "−32.00^1 mmHg"}, {"measurement": "SBP increased", "setting": "dogs with hypertension; day 30, FIG. 2", "result": "more than 10%"}, {"measurement": "Average of SBP day 30", "setting": "dogs with hypertension; day 30", "result": 153.80, "unit": "mmHg"}, {"measurement": "Average of SBP day 30", "setting": "dogs with hypertension; day 30, listed as enalapril", "result": 153, "unit": "mmHg"}, {"measurement": "Average of SBP day 60", "setting": "dogs with hypertension", "result": 153.00, "unit": "mmHg"}, {"measurement": "Average of SBP day 90", "setting": "dogs with hypertension", "result": 158.00, "unit": "mmHg"}, {"measurement": "course of average SBP during the period of treatment", "setting": "dogs with hypertension; no amlodipine", "result": "increased again on days 60 and 90"}]}
{"compound": "CCCc1nc2c(C)cc(-c3nc4ccccc4n3C)cc2n1Cc1ccc(-c2ccccc2C(=O)O)cc1", "note": "[Telmisartan]", "values": [{"measurement": "Average of SBP day 0", "setting": "dogs with hypertension", "result": 163.57, "unit": "mmHg"}, {"measurement": "Average of SBP day 0", "setting": "dogs with hypertension; listed as telmisartan", "result": 163, "unit": "mmHg"}, {"measurement": "Average of SBP % change day 30", "setting": "dogs with hypertension; day 30", "result": "−18.88", "unit": "%"}, {"measurement": "Average of SBP change day 30", "setting": "dogs with hypertension; day 30", "result": "−31.50", "unit": "mmHg"}, {"measurement": "Average of SBP % change day 60", "setting": "dogs with hypertension", "result": "−18.42", "unit": "%"}, {"measurement": "Average of SBP change day 60", "setting": "dogs with hypertension", "result": "−31.00", "unit": "mmHg"}, {"measurement": "Average of SBP % change day 90", "setting": "dogs with hypertension", "result": "−22.58", "unit": "%"}, {"measurement": "Average of SBP change day 90", "setting": "dogs with hypertension", "result": "−37.00", "unit": "mmHg"}, {"measurement": "Average of SBP % change day 120", "setting": "dogs with hypertension; no amlodipine", "result": "−42.70^2%"}, {"measurement": "Average of SBP change day 120", "setting": "dogs with hypertension; no amlodipine", "result": "−76.00^2 mmHg"}, {"measurement": "absolute average SBP compared to enalapril treated dogs", "setting": "dogs with hypertension; day 0 to day 90, no amlodipine, FIG. 4", "result": "much lower"}, {"measurement": "average change of SBP, reduction compared to enalapril-treated dogs", "setting": "dogs with hypertension; day 30", "result": "at least 30 mmHg"}, {"measurement": "reduction in SBP", "setting": "dogs with hypertension; day 30, FIG. 2", "result": "~20", "unit": "%"}, {"measurement": "average SBP change from baseline compared to enalapril", "setting": "dogs with hypertension; day 30, day 60 and day 90, dogs with SBP of at least 150 mmHg at day 0 which received amlodipine, FIG. 3", "result": "greater"}, {"measurement": "Average of SBP day 30", "setting": "dogs with hypertension; day 30", "result": 140.86, "unit": "mmHg"}, {"measurement": "average change (reduction) in SBP compared to enalapril treated dogs", "setting": "dogs with hypertension; day 30 to day 90, no amlodipine, FIGS. 1 and 2", "result": "greater"}, {"measurement": "Average of SBP day 60", "setting": "dogs with hypertension", "result": 138.60, "unit": "mmHg"}, {"measurement": "Average of SBP day 90", "setting": "dogs with hypertension", "result": 132.33, "unit": "mmHg"}, {"measurement": "Average of SBP day 90", "setting": "dogs with hypertension; listed as telmisartan", "result": 132, "unit": "mmHg"}, {"measurement": "course of average SBP during the period of treatment", "setting": "dogs with hypertension; no amlodipine", "result": "constantly lowered"}, {"measurement": "effect on blood pressure", "setting": "dogs; 1 mg/kg daily dose", "result": "have an effect on blood pressure"}, {"measurement": "vascular and renal excretory effects", "setting": "dogs; daily oral dose", "result": "produces vasodilation, diuresis and natriuresis without influencing potassium or creatinine excretion"}]}
